ChEMBL document CHEMBL4387750, “Backbone modifications in peptidic inhibitors of flaviviral proteases” (Bioorg Med Chem Lett, 2019)
Where a SMILES comes first, the peptide text is derived from it. [ ]: non-standard residue; d: D form. The star is where a group is joined. dPhg = N[C@@H](C(=O)O)c1ccccc1; Phg = N[C@H](C(=O)O)c1ccccc1; Bz = O=C(c1ccccc1)*

Assays:
[1] = biological target: Genome polyprotein (West Nile virus) (UniProt P06935); experiment: Inhibition of West Nile virus NS2B-NS3 protease preincubated with protein for 15 mins followed by Abz-Gly-Leu-Lys-Arg-Gly-Gly-3-(NO2)-Tyr substrate addition and measured by continuous fluorometric analysis relative to control; design: concentration or dose not given beside the values
Trypsin [2] = biological target: T1, Trypsin (Homo sapiens, UniProt P07477+P07478+P35030); experiment: Inhibition of trypsin (unknown origin) at 50 uM preincubated with protein for 15 mins followed by boc-Val-Pro-Arg-AMC substrate addition and measured by continuous fluorometric analysis relative to control; format: protein assay
[3] = biological target: Prothrombin (Homo sapiens) (UniProt P00734); experiment: Inhibition of human thrombin at 25 uM preincubated with protein for 15 mins followed by boc-Val-Pro-Arg-AMC substrate addition and measured after 10 mins by continuous fluorometric analysis relative to control
[4] = biological target: Genome polyprotein (dengue virus type 2) (UniProt P29990); experiment: Inhibition of Dengue virus serotype 2 NS2B-NS3 protease at 50 uM preincubated with protein for 15 mins followed by Abz-Nle-Lys-Arg-Arg-Ser-3-(NO2)Tyr substrate addition and measured by continuous fluorometric analysis relative to control
Genome polyprotein [5] = biological target: Genome polyprotein (dengue virus type 2, UniProt P29990); experiment: Inhibition of Dengue virus serotype 2 NS2B-NS3 protease preincubated with protein for 15 mins followed by Abz-Nle-Lys-Arg-Arg-Ser-3-(NO2)Tyr substrate addition and measured by continuous fluorometric analysis
[6] = Metabolic stability in Sprague-Dawley rat liver microsomes assessed as compound degradation by measuring half life incubated for 120 mins by HPLC and UV analysis; format: ADME, Microsome; settings: for Stability: microsomes, 2 h
Genome polyprotein [7] = biological target: Genome polyprotein (West Nile virus, UniProt P06935); experiment: Inhibition of West Nile virus NS2B-NS3 protease preincubated with protein for 15 mins followed by Abz-Gly-Leu-Lys-Arg-Gly-Gly-3-(NO2)-Tyr substrate addition and measured by continuous fluorometric analysis
[8] = Metabolic stability assessed as alpha-chymotrypsin (unknown origin)-mediated drug degradation by measuring half life in pH 7.4 phosphate buffer incubated up to 60 mins at 37 degC by HPLC and UV analysis; format: ADME; settings: human; for Stability: buffer, pH 7.4, 1 h
Trypsin [9] = biological target: T1, Trypsin; experiment: Metabolic stability assessed as trypsin (unknown origin)-mediated drug degradation by measuring half life in pH 7.5 Tris buffer incubated up to 60 mins at 37 degC by HPLC and UV analysis; format: ADME, protein assay; settings: pH 7.5, 1 h
[10] = Metabolic stability in Sprague-Dawley rat liver microsomes assessed as compound remaining after 120 mins by HPLC and UV analysis; format: ADME, Microsome; settings: read-out: Stability

Chain of Genome polyprotein (West Nile virus) (P06935 whole entry): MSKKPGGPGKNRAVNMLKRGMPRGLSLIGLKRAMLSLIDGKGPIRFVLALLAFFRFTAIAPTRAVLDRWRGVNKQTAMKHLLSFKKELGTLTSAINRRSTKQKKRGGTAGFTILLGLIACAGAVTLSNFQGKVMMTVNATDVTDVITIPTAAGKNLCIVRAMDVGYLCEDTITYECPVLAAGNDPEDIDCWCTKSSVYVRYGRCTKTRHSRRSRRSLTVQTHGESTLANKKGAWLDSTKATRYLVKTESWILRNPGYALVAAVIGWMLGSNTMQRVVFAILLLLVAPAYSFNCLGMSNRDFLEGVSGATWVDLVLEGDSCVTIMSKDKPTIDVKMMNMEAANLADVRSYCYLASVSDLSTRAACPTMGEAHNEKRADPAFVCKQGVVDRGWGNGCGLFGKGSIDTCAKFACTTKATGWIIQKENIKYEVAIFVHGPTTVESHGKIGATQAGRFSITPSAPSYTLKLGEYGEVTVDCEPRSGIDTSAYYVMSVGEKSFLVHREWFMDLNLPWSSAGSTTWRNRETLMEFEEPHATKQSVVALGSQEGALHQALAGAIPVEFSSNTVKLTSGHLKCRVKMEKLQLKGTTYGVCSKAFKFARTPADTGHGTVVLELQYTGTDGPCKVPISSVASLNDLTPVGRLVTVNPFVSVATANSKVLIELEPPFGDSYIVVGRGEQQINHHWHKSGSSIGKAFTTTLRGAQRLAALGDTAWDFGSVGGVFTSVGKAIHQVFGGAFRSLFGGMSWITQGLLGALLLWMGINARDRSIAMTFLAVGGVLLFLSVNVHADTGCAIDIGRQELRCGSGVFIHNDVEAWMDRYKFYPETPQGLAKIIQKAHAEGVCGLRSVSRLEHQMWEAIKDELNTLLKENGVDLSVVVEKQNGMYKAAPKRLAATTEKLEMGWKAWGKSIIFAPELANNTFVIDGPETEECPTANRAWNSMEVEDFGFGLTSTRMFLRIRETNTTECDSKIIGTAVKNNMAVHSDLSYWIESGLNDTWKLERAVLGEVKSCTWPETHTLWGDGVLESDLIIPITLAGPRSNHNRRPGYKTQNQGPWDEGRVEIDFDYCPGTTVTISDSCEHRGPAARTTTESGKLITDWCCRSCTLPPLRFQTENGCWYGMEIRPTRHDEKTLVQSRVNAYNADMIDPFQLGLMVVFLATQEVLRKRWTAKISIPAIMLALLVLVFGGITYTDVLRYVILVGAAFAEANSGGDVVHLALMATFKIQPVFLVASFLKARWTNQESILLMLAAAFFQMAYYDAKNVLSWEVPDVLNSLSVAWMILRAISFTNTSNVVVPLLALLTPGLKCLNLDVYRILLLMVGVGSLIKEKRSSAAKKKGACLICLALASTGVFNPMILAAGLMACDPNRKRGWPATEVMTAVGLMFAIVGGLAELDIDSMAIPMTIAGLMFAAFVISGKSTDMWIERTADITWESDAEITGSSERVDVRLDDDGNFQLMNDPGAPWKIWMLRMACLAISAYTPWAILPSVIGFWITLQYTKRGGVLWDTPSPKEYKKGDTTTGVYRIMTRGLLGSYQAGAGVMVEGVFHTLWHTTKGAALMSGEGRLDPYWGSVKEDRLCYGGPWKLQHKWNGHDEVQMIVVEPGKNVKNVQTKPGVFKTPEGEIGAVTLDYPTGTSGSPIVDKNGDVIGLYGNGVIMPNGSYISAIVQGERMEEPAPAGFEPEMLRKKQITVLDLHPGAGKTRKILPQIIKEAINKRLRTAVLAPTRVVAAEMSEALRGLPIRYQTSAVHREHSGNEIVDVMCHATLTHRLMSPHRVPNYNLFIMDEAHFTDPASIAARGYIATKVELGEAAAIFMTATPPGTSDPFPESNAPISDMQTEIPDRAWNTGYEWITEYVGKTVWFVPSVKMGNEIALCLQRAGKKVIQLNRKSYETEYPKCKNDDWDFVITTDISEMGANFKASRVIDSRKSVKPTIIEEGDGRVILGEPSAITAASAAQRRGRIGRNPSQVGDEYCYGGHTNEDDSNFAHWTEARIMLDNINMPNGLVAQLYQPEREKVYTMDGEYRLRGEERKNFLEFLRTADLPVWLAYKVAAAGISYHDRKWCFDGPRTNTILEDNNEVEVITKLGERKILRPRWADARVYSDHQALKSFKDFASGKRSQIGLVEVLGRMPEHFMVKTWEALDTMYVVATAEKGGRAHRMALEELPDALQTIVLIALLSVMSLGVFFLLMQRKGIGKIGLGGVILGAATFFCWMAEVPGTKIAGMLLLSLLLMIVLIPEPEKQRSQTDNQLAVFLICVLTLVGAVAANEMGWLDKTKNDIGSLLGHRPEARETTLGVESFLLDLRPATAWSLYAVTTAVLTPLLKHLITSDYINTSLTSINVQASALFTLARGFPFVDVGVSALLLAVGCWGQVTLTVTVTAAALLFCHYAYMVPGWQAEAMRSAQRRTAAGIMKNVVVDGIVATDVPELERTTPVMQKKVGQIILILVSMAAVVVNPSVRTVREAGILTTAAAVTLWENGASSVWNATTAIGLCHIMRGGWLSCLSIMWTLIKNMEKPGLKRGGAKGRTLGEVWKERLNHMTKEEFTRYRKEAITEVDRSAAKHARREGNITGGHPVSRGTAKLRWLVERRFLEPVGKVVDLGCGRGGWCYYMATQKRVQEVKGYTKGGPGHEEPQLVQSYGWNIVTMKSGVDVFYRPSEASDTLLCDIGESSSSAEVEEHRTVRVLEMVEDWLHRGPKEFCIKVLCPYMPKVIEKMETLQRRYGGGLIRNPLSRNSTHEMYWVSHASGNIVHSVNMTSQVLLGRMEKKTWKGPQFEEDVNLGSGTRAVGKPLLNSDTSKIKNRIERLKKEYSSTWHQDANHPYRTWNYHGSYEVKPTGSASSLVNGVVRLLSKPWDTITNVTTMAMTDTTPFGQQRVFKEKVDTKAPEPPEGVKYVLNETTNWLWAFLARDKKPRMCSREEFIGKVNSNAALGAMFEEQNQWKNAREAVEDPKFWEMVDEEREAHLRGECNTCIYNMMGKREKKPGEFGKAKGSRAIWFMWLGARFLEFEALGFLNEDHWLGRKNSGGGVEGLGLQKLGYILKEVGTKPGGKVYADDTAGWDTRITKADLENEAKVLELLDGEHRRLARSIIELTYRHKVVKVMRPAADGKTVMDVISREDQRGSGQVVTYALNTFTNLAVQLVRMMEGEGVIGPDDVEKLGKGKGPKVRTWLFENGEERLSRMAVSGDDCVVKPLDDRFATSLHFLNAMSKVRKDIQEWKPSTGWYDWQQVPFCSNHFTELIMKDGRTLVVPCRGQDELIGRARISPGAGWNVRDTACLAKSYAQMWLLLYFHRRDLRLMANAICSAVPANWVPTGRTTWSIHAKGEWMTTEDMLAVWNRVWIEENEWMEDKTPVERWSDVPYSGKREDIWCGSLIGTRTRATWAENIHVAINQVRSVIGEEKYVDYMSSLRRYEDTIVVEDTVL
Chain of Genome polyprotein (West Nile virus, UniProt P06935) (P06935 1371-1501 limits assumed): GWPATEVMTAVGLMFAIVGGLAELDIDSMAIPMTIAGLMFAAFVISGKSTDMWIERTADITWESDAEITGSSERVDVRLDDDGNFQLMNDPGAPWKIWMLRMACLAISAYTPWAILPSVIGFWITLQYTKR
Chain of Genome polyprotein (West Nile virus, UniProt P06935) (P06935 1502-2120 limits assumed): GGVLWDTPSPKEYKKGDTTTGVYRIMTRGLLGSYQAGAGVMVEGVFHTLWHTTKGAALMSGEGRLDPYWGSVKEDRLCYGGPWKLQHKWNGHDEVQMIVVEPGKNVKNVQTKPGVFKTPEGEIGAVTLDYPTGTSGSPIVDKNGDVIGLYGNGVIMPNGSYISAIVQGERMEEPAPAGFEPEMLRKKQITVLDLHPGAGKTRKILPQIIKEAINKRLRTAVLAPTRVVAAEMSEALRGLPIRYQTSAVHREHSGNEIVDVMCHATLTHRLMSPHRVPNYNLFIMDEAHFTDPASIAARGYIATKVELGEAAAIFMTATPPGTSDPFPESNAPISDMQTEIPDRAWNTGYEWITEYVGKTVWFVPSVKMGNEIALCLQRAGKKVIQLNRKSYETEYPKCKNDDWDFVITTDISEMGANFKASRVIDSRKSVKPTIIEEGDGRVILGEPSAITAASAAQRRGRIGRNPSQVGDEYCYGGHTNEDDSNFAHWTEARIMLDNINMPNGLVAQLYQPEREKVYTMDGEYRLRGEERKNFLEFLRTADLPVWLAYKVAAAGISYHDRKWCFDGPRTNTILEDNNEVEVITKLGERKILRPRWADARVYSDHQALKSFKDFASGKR

**Q.** For `N=C(N)NCCC[C@H](NC(=O)c1ccccc1)C(=O)N[C@@H](CCCCN)CC(=O)N(CC(N)=O)c1ccccc1`, which inhibition [1] is on record?
**A.** 17.7%

**Q.** And the inhibition (Trypsin [2])?
**A.** < 5%

**Q.** What about the inhibition [3] of the same molecule?
**A.** < 5%

**Q.** And the inhibition [4]?
**A.** 22.7%

**Q.** Which IC50 (Genome polyprotein [5]) does the source give for `CN(C(=O)c1ccccc1)[C@@H](CCCNC(=N)N)C(=O)N[C@@H](CCCCN)C(=O)N[C@@](C)(C(N)=O)c1ccccc1` here?
**A.** 3 µM

**Q.** And the inhibition [1]?
**A.** 50.8%

**Q.** What about the inhibition (Trypsin [2]) of the same molecule?
**A.** 10.9%

**Q.** And the inhibition [3]?
**A.** < 5%

**Q.** And the inhibition [4]?
**A.** 93.9%

**Q.** Which results are given for `CCC(NC(=O)[C@H](CCCCN)NC(=O)[C@H](CCCNC(=N)N)NC(=O)c1ccccc1)(C(N)=O)c1ccccc1` (stereo partly drawn)?
**A.** inhibition [1]: 12.1%; inhibition (Trypsin [2]): 8.7%; inhibition [3]: < 5%; inhibition [4]: 35.2%

**Q.** Which inhibition [1] does the source give for `N=C(N)NCCC[C@H](N[C@H](c1ccccc1)C(F)(F)F)C(=O)N[C@@H](CCCCN)C(=O)N[C@@H](C(N)=O)c1ccccc1` here?
**A.** 24.6%

**Q.** What about the inhibition (Trypsin [2]) of the same molecule?
**A.** < 5%

**Q.** And the inhibition [3]?
**A.** < 5%

**Q.** And the inhibition [4]?
**A.** 43.7%

**Q.** What does the source list for `CN(C(=O)c1ccccc1)[C@@H](CCCNC(=N)N)C(=O)N[C@@H](CCCCN)C(=O)N[C@@H](C(N)=O)c1ccc(OCc2ccccc2)cc1`?
**A.** IC50 (Genome polyprotein [5]): 1.6 µM; inhibition [1]: 92%; inhibition (Trypsin [2]): < 5%; Stability [6]: Stable; IC50 (Genome polyprotein [7]): 7.1 µM; inhibition [3]: 5.5%; inhibition [4]: 97.8%

**Q.** With `CC(NC(=O)[C@H](CCCCN)NC(=O)[C@H](CCCNC(=N)N)NC(=O)c1ccccc1)(C(N)=O)c1ccccc1` (stereo partly drawn) as the molecule, how does the IC50 (Genome polyprotein [5]) read?
**A.** 1.3 µM

**Q.** And the inhibition [1]?
**A.** 59.8%

**Q.** And the inhibition (Trypsin [2])?
**A.** < 5%

**Q.** And the IC50 (Genome polyprotein [7])?
**A.** 24.3 µM

**Q.** What about the inhibition [3] of the same molecule?
**A.** 9.1%

**Q.** What about the inhibition [4] of the same molecule?
**A.** 97.8%

**Q.** Which results are given for `CN(C(=O)c1ccccc1)[C@@H](CCCNC(=N)N)C(=O)N[C@@H](CCCCN)C(=O)N[C@@H](C(N)=O)c1ccccc1`?
**A.** IC50 (Genome polyprotein [5]): 3.6 µM; inhibition [1]: 48.4%; inhibition (Trypsin [2]): < 5%; Stability [8]: Stable; Stability [6]: Stable; inhibition [3]: < 5%; inhibition [4]: 93.6%; Stability (Trypsin [9]): Stable

**Q.** With `C[C@]12CC[C@H]3[C@@H](CCC4=CC(=O)CC[C@@]43C)[C@@H]1CC[C@@H]2O` [TESTOSTERONE] as the molecule, how does the half-life ([6]; Sprague-Dawley, liver microsomes) read?
**A.** 9 to 35 min

**Q.** What does the source list for `N=C(N)NCCC[C@H](NC(=O)C(=O)c1ccccc1)C(=O)N[C@@H](CCCCN)C(=O)N[C@@H](C(N)=O)c1ccccc1`?
**A.** IC50 (Genome polyprotein [5]): 4.1 µM; inhibition [1]: 43.2%; inhibition (Trypsin [2]): 33.5%; inhibition [3]: < 5%; inhibition [4]: 94%

**Q.** What does the source list for `N=C(N)NCCC[C@H](NC(=O)c1ccccc1)C(=O)N[C@@H](CCCCN)CC(=O)N[C@@H](C(N)=O)c1ccccc1`?
**A.** inhibition [1]: 14.6%; inhibition (Trypsin [2]): < 5%; inhibition [3]: < 5%; inhibition [4]: 31.8%

**Q.** With `N=C(N)NCCC[C@H](NC(=O)c1ccccc1)C(=O)N[C@@H](CCCCN)C(=O)N[C@@H](C(N)=O)c1ccc(OCc2ccccc2)cc1` as the molecule, how does the IC50 (Genome polyprotein [5]) read?
**A.** 0.4 µM

**Q.** What about the inhibition [1] of the same molecule?
**A.** 101%

**Q.** What about the inhibition (Trypsin [2]) of the same molecule?
**A.** 18.4%

**Q.** What about the Stability [6] of the same molecule?
**A.** Stable

**Q.** What about the IC50 (Genome polyprotein [7]) of the same molecule?
**A.** 0.8 µM

**Q.** What about the inhibition [3] of the same molecule?
**A.** 7.8%

**Q.** What about the inhibition [4] of the same molecule?
**A.** 100%

**Q.** And the Stability (Trypsin [9])?
**A.** Stable

**Q.** With `N=C(N)NCCCN(CC(=O)N[C@@H](CCCCN)C(=O)N[C@@H](C(N)=O)c1ccccc1)C(=O)c1ccccc1` as the molecule, how does the inhibition [1] read?
**A.** 12.4%

**Q.** What about the inhibition (Trypsin [2]) of the same molecule?
**A.** < 5%

**Q.** What about the inhibition [3] of the same molecule?
**A.** < 5%

**Q.** What about the inhibition [4] of the same molecule?
**A.** 32.7%

**Q.** What does the source list for `N=C(N)NCCC[C@H](NC(=O)c1ccccc1)C(=O)N[C@@H](CCCCN)C(=O)N(CC(N)=O)c1ccccc1`?
**A.** inhibition [1]: 19.8%; inhibition (Trypsin [2]): < 5%; inhibition [3]: < 5%; inhibition [4]: 28.9%

**Q.** With `N=C(N)NCCC[C@H](NC(=O)c1ccccc1)C(=O)N[C@@H](CCCCN)C(=O)N[C@@H](C(N)=O)c1ccccc1` (Bz-Arg-Lys-[dPhg]-NH2) as the molecule, how does the IC50 (Genome polyprotein [5]) read?
**A.** 3.8 µM

**Q.** What about the inhibition [1] of the same molecule?
**A.** 99%

**Q.** What about the inhibition (Trypsin [2]) of the same molecule?
**A.** 12.5%

**Q.** What about the half-life ([8]; alpha-chymotrypsin in phosphate buffer, pH 7.4) of the same molecule?
**A.** 11 min

**Q.** And the Stability [6]?
**A.** Stable

**Q.** What about the IC50 (Genome polyprotein [7]) of the same molecule?
**A.** 3.8 µM

**Q.** And the inhibition [3]?
**A.** < 5%

**Q.** What about the inhibition [4] of the same molecule?
**A.** 99.3%

**Q.** What about the Stability (Trypsin [9]) of the same molecule?
**A.** Stable

**Q.** Which results are given for `CN(C(=O)[C@H](CCCNC(=N)N)NC(=O)c1ccccc1)[C@@H](CCCCN)C(=O)N[C@@H](C(N)=O)c1ccccc1`?
**A.** inhibition [1]: < 5%; inhibition (Trypsin [2]): < 5%; inhibition [3]: < 5%; inhibition [4]: 36.3%

**Q.** Which results are given for `CN(C(=O)[C@H](CCCCN)NC(=O)[C@H](CCCNC(=N)N)NC(=O)c1ccccc1)[C@@H](C(N)=O)c1ccccc1`?
**A.** inhibition [1]: 36.7%; inhibition (Trypsin [2]): < 5%; inhibition [3]: < 5%; inhibition [4]: 33%

**Q.** For `N=C(N)NCCC[C@H](N[C@@H](c1ccccc1)C(F)(F)F)C(=O)N[C@@H](CCCCN)C(=O)N[C@@H](C(N)=O)c1ccccc1`, which inhibition [1] is on record?
**A.** 6%

**Q.** What about the inhibition (Trypsin [2]) of the same molecule?
**A.** < 5%

**Q.** What about the inhibition [3] of the same molecule?
**A.** < 5%

**Q.** And the inhibition [4]?
**A.** 32.1%

**Q.** For `N=C(N)NCCC[C@@H](NC(=O)[C@@H](N)Cc1ccc(O)cc1)C(=O)N[C@@H](Cc1ccccc1)C(=O)N[C@@H](Cc1ccccc1)C(N)=O` (H-Y[dR]FF-NH2), which remaining at 2 h [10] is on record?
**A.** 85%

**Q.** And the Stability [8]?
**A.** Unstable

**Q.** And the Stability (Trypsin [9])?
**A.** Stable

**Q.** Which results are given for `N=C(N)NCCC[C@H](NC(=O)c1ccccc1)C(=O)N[C@@H](CCCCN)C(=O)N[C@@H](CC(N)=O)c1ccccc1`?
**A.** inhibition [1]: 12.6%; inhibition (Trypsin [2]): 7.5%; inhibition [3]: < 5%; inhibition [4]: 17.6%

**Q.** For `N=C(N)NCCC[C@H](NC(=O)c1ccccc1)C(=O)N(CCCCN)CC(=O)N[C@@H](C(N)=O)c1ccccc1`, which inhibition [1] is on record?
**A.** 18.4%

**Q.** What about the inhibition (Trypsin [2]) of the same molecule?
**A.** 10.6%

**Q.** And the inhibition [3]?
**A.** < 5%

**Q.** And the inhibition [4]?
**A.** < 5%

**Q.** With `N=C(N)NCCC[C@H](NC(=O)c1ccccc1)C(=O)N[C@@H](CCCCN)C(=O)NC(C(N)=O)(c1ccccc1)c1ccccc1` as the molecule, how does the inhibition [1] read?
**A.** 33.3%

**Q.** And the inhibition (Trypsin [2])?
**A.** 45.5%

**Q.** And the inhibition [3]?
**A.** < 5%

**Q.** And the inhibition [4]?
**A.** 20.6%

**Q.** For `C[C@](NC(=O)[C@H](CCCCN)NC(=O)[C@H](CCCNC(=N)N)NC(=O)c1ccccc1)(C(N)=O)c1ccccc1`, which IC50 (Genome polyprotein [5]) is on record?
**A.** 0.6 µM

**Q.** What about the inhibition [1] of the same molecule?
**A.** 82.5%

**Q.** What about the inhibition (Trypsin [2]) of the same molecule?
**A.** 11.8%

**Q.** What about the Stability [8] of the same molecule?
**A.** Stable

**Q.** And the Stability [6]?
**A.** Stable

**Q.** And the IC50 (Genome polyprotein [7])?
**A.** 14.3 µM

**Q.** What about the inhibition [3] of the same molecule?
**A.** 6.5%

**Q.** And the inhibition [4]?
**A.** 99.1%

**Q.** What about the Stability (Trypsin [9]) of the same molecule?
**A.** Stable

**Q.** Which IC50 (Genome polyprotein [5]) does the source give for `C[C@@](NC(=O)[C@H](CCCCN)NC(=O)[C@H](CCCNC(=N)N)NC(=O)c1ccccc1)(C(N)=O)c1ccccc1` here?
**A.** 9.5 µM

**Q.** And the inhibition [1]?
**A.** 47.4%

**Q.** And the inhibition (Trypsin [2])?
**A.** 20.7%

**Q.** What about the inhibition [3] of the same molecule?
**A.** < 5%

**Q.** What about the inhibition [4] of the same molecule?
**A.** 81.7%

**Q.** With `N=C(N)NCCC[C@H](NC(=O)c1ccccc1)C(=O)N[C@@H](CCCCN)C(=O)N[C@H](C(N)=O)c1ccccc1` (Bz-Arg-Lys-[Phg]-NH2) as the molecule, how does the IC50 (Genome polyprotein [5]) read?
**A.** 3.3 µM

**Q.** And the inhibition (Trypsin [2])?
**A.** < 5%

**Q.** And the inhibition [3]?
**A.** < 5%

**Q.** What about the inhibition [4] of the same molecule?
**A.** 95%
